Experimental data from US20070207544A1, “STROMA-FREE, SERUM-FREE, AND CHEMICALLY DEFINED MEDIUM AND METHOD FOR EX VIVO MONONUCLEAR CELL EXPANSION USING THE SAME” (FOOD INDUSTRY RESEARCH & DEVELOPMENT INSTITUTE, priority 2005, published 2007).

Legend:
CD34^+ cells = assay: Ex vivo expansion of UCB mononuclear cells: CD34^+ cell growth by flow cytometry; assay type: cell-based, human; details: for effect of serum substitute on CD34^+ cell growth: sign of coefficient in Eq. (3), IMDM + seven cytokines
Experimental: (§1) The term UCB was harvested with a standard 250-ml blood bag (Terumo, Shibuya-ku, Tokyo, Japan) with the informed consent and processed within 24 hrs. Buffy coat cells were obtained from UCB by centrifugation (700×g, 20 mins), and were diluted with an equal volume of wash buffer (Dulbecco's phosphate buffered saline, D-PBS, containing 2 mM EDTA, Sigma, St. Louis, Mo.). Then the cells were layered onto Ficoll-Paque solution (ρ=1.077 g/ml, Amersham Biosciences, Uppsala, Sweden) and centrifuged to deplete red blood cells, platelets and plasma (700×g, 40 mins). MNCs were collected, and washed with D-PBS twice. Recovery rate, viability, percentage of CD34^+ fraction, colony-forming cells (CFCs), and long-term culture-initiating cells (LTC-ICs) were determined as day 0 for control. For expansion, MNC were seeded at a concentration of 5×10^5 cells/ml in 24-well plates with variable serum substitutes and cytokines according to experiment design (all experiments were repeated at least six times).
(§2) Two-level factorial design followed the method of steepest ascent was carried out to find the optimal concentrations of serum substitutes and cytokines for CD34^+ cells expansion. Fractional and full factorial design data were regressed by SPSS software to obtain the first order polynomial. Its statistic significance was determined by an F-test and the significance of the regression coefficients was analyzed by a t-test. The polynomial takes the form of White blood cells (WBCs)/ml or CD34^+ cells/ml=α0+αixi (1)
(§3) As has been extensively reviewed [Sandstrom C E, et al. Biotechnol Bioeng. 1994; 43:706-733; Mobest D, et al. Biotechnol Bioeng. 1998; 60:341-347; Bruyn C D, et al. Cytotherapy. 2003; 5:153-160] and based on the inventors' previous experience [Lebkowski J S, et al. Stem Cells. 1995; 13:607-612; Audet J, et al. Biotechnol Bioeng. 2002; 80:393-404; Yao C L, et al. Enzyme Micro Technol. 2003; 33:343-352], four kinds of compounds that are frequently used as serum substitutes were selected—bovine serum albumin (BSA), insulin, transferring (TF), and 2-mercaptoethanol (2-ME). The 2^4 full factorial design was adopted to determine which serum substitutes were required for CD34^+ cell expansion in the MNC culture system. The 2^4 full factorial design could efficiently test four compounds with 16 trials and provide completely degrees of freedom to obtain the coefficients. […] 2003; 33:343-352]; the initial cell density was 5×10^5 MNCs/ml and the cells were analyzed after 7-day culture.
(§4) The 2^10-6 fractional factorial design (16 runs simultaneously) was adopted to identify which cytokines could help CD34^+ cell expansion in the MNC culture system. This design could efficiently test ten compounds with 16 trials and provide sufficient degrees of freedom to obtain the coefficients.

white blood cells (WBCs) = assay: Ex vivo expansion of UCB mononuclear cells: WBC growth (cell density); assay type: cell-based, human; details: for effect of cytokine on WBC growth: sign of coefficient in Eq. (4), IMDM + BIT; for effect of serum substitute on WBC growth: sign of coefficient in Eq. (2), IMDM + seven cytokines
Experimental: as §1, §2, §3, §4

In the case of “IL-6: recombinant human interleukin-6; x5 in Eq. (4), (5)”, the “effect of cytokine on CD34^+ cell growth” value (CD34^+ cells; sign of coefficient in Eq. (5), IMDM + BIT) is reported as “positive effect” and the “effect of cytokine on WBC growth” value (white blood cells (WBCs)) is reported as “inhibit”.
In the case of `OCCS` [2-ME, 2-mercaptoethanol, reference compound], the “effect of serum substitute on CD34^+ cell growth” value (CD34^+ cells) is reported as “inhibit” and the “effect of serum substitute on WBC growth” value (white blood cells (WBCs)) is reported as “inhibit”.
In the case of “insulin: insulin, serum substitute; x2 in Eq. (2), (3)”, the “effect of serum substitute on CD34^+ cell growth” value (CD34^+ cells) is reported as “enhance” and the “effect of serum substitute on WBC growth” value (white blood cells (WBCs)) is reported as “enhance”.
In the case of “HGF: recombinant human hepatocyte growth factor; x10 in Eq. (4), (5)”, the “effect of cytokine on WBC growth” value (white blood cells (WBCs)) is reported as “inhibit”.
With “TF: transferrin, serum substitute; x3 in Eq. (2), (3)” the “effect of serum substitute on CD34^+ cell growth” value (CD34^+ cells) was “enhance” and the “effect of serum substitute on WBC growth” value (white blood cells (WBCs)) was “enhance”.
